# Values of other authors, collected in patent US20260248729A1, “NOVEL ORAL DOSAGE FORM” (Neon Healthcare Ltd, priority 2022, published 2026).
# [1] = administered orally in the form of phenelzine sulfate
structure (smiles),measurement,setting,value
"NNCCc1ccccc1 [Phenelzine, 2-phenylethylhydrazine]",Time to peak plasma concentration,[1],43 min
same,half-life,[1],11.6 h
same,"major metabolites phenylacetic acid and parahydroxyphenylacetic acid recovered, of the excreted dose of phenelzine in the urine",over the course of 96 hours after single doses,about 73%
